Key:
[1] = Solubility remark; assay type: physicochemical; conditions: prepared in methylcellulose
[2] = test system: HO-null cells; assay: Secondary filter for Myc specificity: cell growth inhibition, methylene blue staining; assay type: cell-based; conditions: Rattus norvegicus, 72 h, read-out: ID50 HO-null
Experimental: FIG. 4 illustrates the myc specificity of tested compounds. Rat1a cells expressing c-myc, L-myc or N-myc or lacking any Myc (null) were treated for 72 h with a range of hit compound concentrations. The cells were then fixed and stained with methylene blue and the percentage of cells in the presence of compound compared to DMSO only control was calculated.
Validated hits were divided into classes when two or more compounds shared significant structural similarity. The ID50 for N-myc transactivation (the inhibitory dose resulting in 50% decrease in luciferase activity) for each hit was calculated from the dose-response N-myc responsive reporter assay. Compounds within each class were ranked by their ID50 for N-myc transactivation and the best compounds within each class were chosen for further studies. In addition, the best of the structurally unique compounds were also analyzed. A total of 46 hits were passed through a secondary filter designed to determine the specificity of the hits for Myc proteins. For this filter, we used a panel of cell lines derived from Rat1a cells (kindly provided by Michael Cole, Dartmouth University): HO-null-c-Myc deficient cells due to homologous recombination that express neither N-myc nor L-myc HO-c-Myc, HO-L-myc and HO-N-myc derived by retroviral transduction of the corresponding Myc genes into HO-null cells. Since each cell line expresses only a single Myc or no Myc family members, we could identify compounds that act through Myc family members as well as which Myc family members. […] The 18 Myc-specific compounds identified during the screening and filtering process are presented in Table 1 and represent distinct classes of molecules, including pyrazoles (e.g., N147A7, N47E10, N147G5), tetrazoles (e.g., N77A7) and 3-bromophenol (e.g., N4G6).

[3] = test system: SK-Mel-103 xenografts; assay: Preliminary in vivo testing CBL2.5-01-Ms-1, N77A7 in methylcellulose; design: species or system athymic nude mice; conditions: after a week of ip injection, prepared in methylcellulose
Excerpt: N77A7 was identified in a small molecule library screen for inhibitors of the N-myc oncoprotein, which is involved in the pathogenesis of the childhood tumor neuroblastoma. The molecule is also effective against c-myc, a family member of N-myc that is overexpressed or amplified in a wide variety of tumors, including melanoma. In vitro, the effects of N77A7 on melanoma cells (e.g., SK-Mel-103) closely reflect the effects of myc shRNA on the same cells. In order to determine whether this in vitro effect can translate into an in vivo anti-tumor effect, we tested 50 mg/kg N77A7 administered daily ip against SK-Mel-103 xenografts established in athymic nude mice. […]

[4] = test system: SK-Mel-103 xenografts; assay: SK-Mel-103 xenograft efficacy study CBL2.5-01-Ms-2, N77A7 in Captisol; assay type: in vivo, athymic nude mice
Experimental: FIG. 9 illustrates the effect of N77A7 on survival of SK-Mel-103 tumor-bearing mice. […] When at least one tumor on the majority of mice reached ˜50 mm^3, mice were randomly divided into treatment groups. Starting on Day 1 of treatment, mice were treated daily by ip injection of either 50 mg/kg N77A7 or the equivalent amount of Captisol vehicle. Mice were followed until tumors reached 1000 mm^3 or tumors ulcerated or 28 days of treatment, whichever came first. The proportion of surviving mice is depicted in the graph. The survival of N77A7 and vehicle control-treated mice was compared using the Log Rank test. p-value<0.05 indicates significance.
FIG. 10 illustrates the effect of Captisol and N77A7 on mouse weight. (A) Mean change in body weight as determined by calculating the % starting weight, which is the weight of a mouse on Day X divided by the weight of the same mouse on Day 1 and multiplied by 100. […] (C)-(D) Changes in mouse weight for individual mice in each treatment group calculated as described in (A).
FIG. 11 illustrates the effect of 50 mg/kg N77A7 on tumor growth. (A) Athymic nude mice were inoculated with 1×10^6 SK-Mel-103 tumor cells in each rear flank. When at least one tumor on a mouse was ˜50 mg for the majority of mice, treatment commenced. Mice were treated once daily ip with 50 mg/kg N77A7 or an equivalent amount of vehicle control (i.e., Captisol). Tumors were measured by digital caliper on Day 1 and then twice per week thereafter. Tumor measurements were made blind to the treatment each mouse received. Data is presented as the mean tumor volume on each measurement day. Comparison of tumor volume between treatment groups was made using unpaired t-tests. P value <0.05 is significant. (B) Same as (A) except data is presented as mean fold tumor growth, which was calculated by dividing the mean tumor volume on Day X by that of the same tumor on Day 1.
FIG. 12 illustrates the effect N77A7 on tumor doubling time and the time to reach 1000 mm^3 Growth curves for each tumor within each treatment group were plotted (tumor volume vs days from start of treatment). Regression analysis using the exponential trendline in Excel was used to generate an equation for each curve. From the equation, the tumor doubling time (A) and the time to reach the experimental endpoint of 1000 mm^3 was calculated. Error bars represent the standard error of the mean and p values were obtained using unpaired, two-sided t-tests.
Animal study protocol CBL2.5-01-Ms-2. N77A7 formulated in Captisol was prepared. Both N77A7 and Captisol vehicle were prepared weekly according to the needs of the study. SK-Mel-103 melanoma cells (1×10^6 cells/inoculation were inoculated into each rear flank of 20 athymic nude (7.5 week old males) on Sep. 11, 2009. Prior to commencement of treatment, mice were randomly assigned to treatment groups with 2 of 4 mice per cage assigned to the Captisol vehicle control group and the other 2 mice to the 50 mg/kg N77A7 group. When at least one tumor per mouse for the majority of mice reached ˜50 mm^3 in tumor volume, treatment commenced. The first day of treatment (Day 1) was Sep. 21, 2009. Administration of N77A7 and vehicle control was performed daily by ip administration of 2.5 mg/ml solution of N77A7 or equivalent amount of vehicle control at 500 μl/25 g mouse body weight. Mouse body weight measurements were performed prior to commencement of treatment and Mondays-Wednesdays-Fridays thereafter. Administration volumes were adjusted during the course of the study based on the latest weight measurements. Treatments were administered. Tumor measurements were performed without prior knowledge of which treatment group each mouse belonged (i.e., blinded to treatment groups). When at least one tumor of a mouse reached 1000 mm^3 or tumor ulceration was evident, mice were euthanized according to the approved IACUC protocol (CBL 1096M). The experiment was completed on Day 18 (Oct. 8, 2009). […]

[5] = test system: melanoma cells (Mel-9); assay: Stable-isotope tracing, 13C labeling of central metabolites; assay type: cell-based; conditions: 13C-glucose, 24 h, compared to control
Experimental: Cells were grown in 6-well plates, and the medium was replaced for the final 24 h of culture with the MEM medium described previously (Scott et al., JBC 286, 42626-34, 2011), containing 50% ^13C-labeled [U-^13C6] glucose or 50% ^13C-labeled [U-^13C5] glutamine] […] Metabolites were extracted and GC-MS analysis and calculation of ^13C labeling were performed as described (Scott et al., 2011). Metabolites were quantified on the basis of fragment ion intensities and standard curves derived from mixtures of standards run concurrently with samples, using the program Metaquant (B. Bunk et al., Bioinformatics 22, 2962-2965, 2006). On the graphs, the 13C labeling percentage is shown as average of to separate experiments (with error bars). Samples from cells treated by antimycon (“N77”), anti-MYC shRNA (“Myc”), nonspecific shRNA (“NS”) and the control treated only by DMSO are shown bars with distinct patterns.

[6] = 50 mg/kg daily ip in Captisol, necropsy of several mice

## CCN(CC)c1ccc(/C=N/NC(=O)Cn2nnc(-c3ccccc3)n2)c(O)c1 [Compound N77A7]
[1]
  solubility: poorly soluble
[2]
  IC50: 3.64 µM
[3]
  peritonitis: severe peritonitis
[4]; 50 mg/kg daily ip in Captisol, after 14 days of treatment, all Captisol-treated mice euthanized, logrank P=0.0083
  treated mice remaining in the study (survival): 5 of the 10
[4]; [6]
  compound precipitation at necropsy: no signs of compound precipitation within the abdominal cavity
  peritonitis at necropsy: no signs of peritonitis
[4]; 50 mg/kg daily ip in Captisol, versus Captisol vehicle
  maximum tumor growth inhibition: ~45%
[4]; 50 mg/kg daily ip, 14 consecutive days of treatment
  effect on mouse weight: did not cause any weight loss
[4]; 50 mg/kg daily ip, from regression of growth curves, p=0.0004
  growth delay in reaching the study endpoint (1000 mm3): 5 days
[4]; 50 mg/kg daily ip, from regression of growth curves, p=0.0157
  increase of doubling time for tumor growth: 1 days
[4]; 50 mg/kg daily ip, control <50% (8/18)
  starting tumors left in the study by Day 14: 80%
[5]
  labeling via glucose of serine, glycine, pyruvate, lactate, TCA-cycle metabolites: lower
